# The supplement of paper PMC11061612
# Experiments:
# Experiment in all cases: combination Emax (second highest fraction inhibited in the dose matrix, 72 h); higher = more inhibition; extreme values may be limits of the assay
# [1] = tested on: 647-V (Bladder Carcinoma)
# In short: (§1)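 Cell lines grown in DMEM/F12 or RPMI with 10% FBS were plated in 1536-well plates and held 24 hours at 37°C, 5% CO2 before 72 hours of exposure to two-drug dose matrices, with DMSO typically at 0.2%. CellTiter-Glo 2.0 luminescence gave viability, which was converted to inhibition. Vehicle wells were set to 0 and blank wells to 1. Combination Emax is the second-highest inhibition in the matrix, and Bliss excess is the observed combination effect minus the expected EA + EB − EA·EB, where EA and EB are the single-agent effects.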
# A172 (Glioblastoma) = tested on: A172 (Glioblastoma)
# In short: as §1
# [2] = tested on: BICR78 (Oral Cavity Carcinoma)
# In short: as §1
# CS1 (Chondrosarcoma) = tested on: CS1 (Chondrosarcoma)
# In short: as §1
# [3] = tested on: EFM-192A (Breast Carcinoma)
# In short: as §1
# EW-22 (Ewing's Sarcoma) = tested on: EW-22 (Ewing's Sarcoma)
# In short: as §1
# [4] = tested on: GDM-1 (Acute Myeloid Leukemia)
# In short: as §1
# H4 (Low Grade Glioma) = tested on: H4 (Low Grade Glioma)
# In short: as §1
# HuO9 (Osteosarcoma) = tested on: HuO9 (Osteosarcoma)
# In short: as §1
# [5] = tested on: JHH-6 (Hepatocellular Carcinoma)
# In short: as §1
# MCF7 (Breast Carcinoma) = tested on: MCF7 (Breast Carcinoma)
# In short: as §1
# [6] = tested on: NCI-H1688 (Small Cell Lung Carcinoma)
# In short: as §1
# [7] = tested on: NOMO-1 (Acute Myeloid Leukemia)
# In short: as §1
# [8] = tested on: PA-TU-8902 (Pancreatic Carcinoma)
# In short: as §1
# [9] = tested on: SK-LMS-1 (Other Solid Carcinomas)
# In short: as §1
# [10] = tested on: SNG-M (Endometrial Carcinoma)
# In short: as §1
# [11] = tested on: SW48 (Colorectal Carcinoma)
# In short: as §1
# [12] = tested on: TYK-nu (Ovarian Carcinoma)
# In short: as §1
# [13] = tested on: U-118-MG (Low Grade Glioma)
# In short: as §1
# [14] = tested on: WSU-DLCL2 (B-Cell Non-Hodgkin's Lymphoma)
# In short: as §1
Compound,combination Emax [1],combination Emax (A172 (Glioblastoma)),combination Emax [2],combination Emax (CS1 (Chondrosarcoma)),combination Emax [3],combination Emax (EW-22 (Ewing's Sarcoma)),combination Emax [4],combination Emax (H4 (Low Grade Glioma)),combination Emax (HuO9 (Osteosarcoma)),combination Emax [5],combination Emax (MCF7 (Breast Carcinoma)),combination Emax [6],combination Emax [7],combination Emax [8],combination Emax [9],combination Emax [10],combination Emax [11],combination Emax [12],combination Emax [13],combination Emax [14]
"CC1(C)CCC(CN2CCN(c3ccc(C(=O)NS(=O)(=O)c4ccc(NCC5CCOCC5)c([N+](=O)[O-])c4)c(Oc4cnc5[nH]ccc5c4)c3)CC2)=C(c2ccc(Cl)cc2)C1 [Venetoclax] + COc1cc(Nc2ncc3c(n2)-c2ccc(Cl)cc2C(c2c(F)cccc2OC)=NC3)ccc1C(=O)O [Alisertib] (first compound max 1 µM, 7x7, partner max 10 µM)",0.317,0.595,0.38,0.598,0.167,0.919,0.98,0.814,0.682,0.301,0.411,0.398,0.884,0.394,0.579,0.752,0.887,0.521,0.527,0.995
"CC(=O)c1c(C)c2cnc(Nc3ccc(N4CCNCC4)cn3)nc2n(C2CCCC2)c1=O [Palbociclib] + CC1(C)CCC(CN2CCN(c3ccc(C(=O)NS(=O)(=O)c4ccc(NCC5CCOCC5)c([N+](=O)[O-])c4)c(Oc4cnc5[nH]ccc5c4)c3)CC2)=C(c2ccc(Cl)cc2)C1 [Venetoclax] (first compound max 10 µM, 7x7, partner max 1 µM)",0.098,0.457,0.092,0.354,0.165,0.347,0.892,0.597,0.406,0.227,0.339,0.0922,0.596,0.245,0.147,0.424,0.313,0.401,0.229,0.98
"NC1(C(=O)N[C@@H](CCO)c2ccc(Cl)cc2)CCN(c2ncnc3[nH]ccc23)CC1 [Capivasertib] + CCN(CCO)CCCOc1ccc2c(Nc3cc(CC(=O)Nc4cccc(F)c4)[nH]n3)ncnc2c1 [AZD2811] (first compound max 10 µM, 7x7, partner max 1 µM)",0.309,0.52,0.392,0.417,0.449,0.78,0.837,0.58,0.464,0.4,0.639,0.309,0.735,0.348,0.457,0.363,0.983,0.357,0.603,1
"CC1(C)CCC(CN2CCN(c3ccc(C(=O)NS(=O)(=O)c4ccc(NCC5CCOCC5)c([N+](=O)[O-])c4)c(Oc4cnc5[nH]ccc5c4)c3)CC2)=C(c2ccc(Cl)cc2)C1 [Venetoclax] + Cc1cc2ncnn2cc1Nc1ncc2c(n1)n(C1CCOCC1)c(=O)n2C [AZD7648] (first compound max 1 µM, 7x7, partner max 10 µM)",0.209,0.334,0.265,0.297,0.25,0.842,0.842,0.322,0.426,0.212,0.31,0.245,0.922,0.236,0.307,0.131,0.369,0.36,0.412,0.442
"CN(CCO)CC[C@H](CSc1ccccc1)Nc1ccc(S(=O)(=O)NC(=O)c2ccc(N3CCC([C@@H](O)c4ccccc4-c4ccc(Cl)cc4)CC3)cc2)cc1S(=O)(=O)C(F)(F)F [AZD4320] + C=CCn1c(=O)c2cnc(Nc3ccc(N4CCN(C)CC4)cc3)nc2n1-c1cccc(C(C)(C)O)n1 [AZD1775] (first compound max 1 µM, partner max 1 µM)",0.949,0.491,0.304,0.647,0.302,0.988,1,1,0.949,0.271,0.51,0.87,0.97,0.296,0.778,0.903,0.825,0.65,0.376,1
"Cc1cc2ncnn2cc1Nc1ncc2c(n1)n(C1CCOCC1)c(=O)n2C [AZD7648] + C=CCn1c(=O)c2cnc(Nc3ccc(N4CCN(C)CC4)cc3)nc2n1-c1cccc(C(C)(C)O)n1 [AZD1775] (first compound max 10 µM, partner max 1 µM)",0.52,0.617,0.375,0.541,0.455,0.602,0.894,0.796,0.724,0.311,0.552,0.586,0.961,0.348,0.572,0.645,0.45,0.695,0.435,0.999
"COc1cccc(OCCCN)c1-c1cc(Nc2cnc(C#N)cn2)n[nH]1 [Prexasertib] + CN(C)CCCOc1ccc(-c2ccc3ncc4c(c3c2)n(C2CCOCC2)c(=O)n4C)cn1 [AZD0156] (first compound max 1 µM, 7x7, partner max 1 µM)",0.671,0.699,0.593,0.685,0.233,0.898,0.913,0.917,0.785,0.342,0.741,0.568,1,0.586,0.612,0.99,0.767,0.73,0.723,1
"COc1cccc(OCCCN)c1-c1cc(Nc2cnc(C#N)cn2)n[nH]1 [Prexasertib] + C=CCn1c(=O)c2cnc(Nc3ccc(N4CCN(C)CC4)cc3)nc2n1-c1cccc(C(C)(C)O)n1 [AZD1775] (first compound max 1 µM, partner max 1 µM)",0.925,0.832,0.713,0.735,0.416,0.866,0.945,0.979,0.954,0.599,0.658,0.838,1,0.605,0.711,0.985,0.834,0.748,0.743,1
"CC(=O)c1c(C)c2cnc(Nc3ccc(N4CCNCC4)cn3)nc2n(C2CCCC2)c1=O [Palbociclib] + Cn1cnc2c(F)c(Nc3ccc(Br)cc3Cl)c(C(=O)NOCCO)cc21 [Selumetinib] (first compound max 10 µM, 7x7, partner max 10 µM)",0.206,0.425,0.315,0.408,0.169,0.25,0.555,0.632,0.419,0.443,0.366,0.147,0.858,0.416,0.437,0.296,0.626,0.584,0.296,0.834
"CN(C)CCCOc1ccc(-c2ccc3ncc4c(c3c2)n(C2CCOCC2)c(=O)n4C)cn1 [AZD0156] + C=CCn1c(=O)c2cnc(Nc3ccc(N4CCN(C)CC4)cc3)nc2n1-c1cccc(C(C)(C)O)n1 [AZD1775] (first compound max 1 µM, partner max 1 µM)",0.446,0.53,0.311,0.509,0.353,0.616,0.823,0.791,0.709,0.148,0.417,0.646,0.96,0.252,0.439,0.58,0.372,0.679,0.316,0.944
"COc1cccc2c1C(=O)c1c(O)c3c(c(O)c1C2=O)C[C@@](O)(C(=O)CO)C[C@@H]3O[C@H]1C[C@H](N)[C@H](O)[C@H](C)O1 [Doxorubicin] + Cc1cc2ncnn2cc1Nc1ncc2c(n1)n(C1CCOCC1)c(=O)n2C [AZD7648] (first compound max 1 µM, 7x7, partner max 10 µM)",0.958,0.94,0.748,0.772,0.368,0.947,0.975,0.818,0.897,0.496,0.623,0.732,0.966,0.372,0.82,0.767,0.94,0.704,0.715,1
"NC1(C(=O)N[C@@H](CCO)c2ccc(Cl)cc2)CCN(c2ncnc3[nH]ccc23)CC1 [Capivasertib] + C[C@@H]1COCCN1C2=NC(=NC(=C2)C3(CC3)[S@](=N)(=O)C)C4=C5C=CNC5=NC=C4 [AZD6738] (first compound max 10 µM, 7x7, partner max 10 µM)",0.76,0.779,0.628,0.621,0.581,0.908,0.734,0.809,0.79,0.506,0.731,0.445,0.968,0.544,0.566,0.888,0.759,0.728,0.685,1
